Key:
Type in all cases: in vivo
[1] = test system: ECHCG: Echinochloa crus-galli; assay: Post-emergence herbicidal effect
Outline: (§1)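 Visual rating, made about 3 weeks after treatment against untreated plants, runs from 0% (like controls) to 100% (plants dead). WP or EC formulations were applied post-emergence as aqueous spray at 600 l/ha with 0.5% additive. Plants were at the one-leaf stage, 2 to 3 weeks after sowing in sandy loam.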

[2] = test system: AMARE: Amaranthus retroflexus; assay: Post-emergence herbicidal effect; conditions: dosage 320 g/ha
Outline: as §1

[3] = test system: LOLRI: Lolium rigidum; assay: Post-emergence herbicidal effect
Outline: as §1

[4] = test system: POLCO: Polygonum convolvulus; assay: Post-emergence herbicidal effect
Outline: as §1

[5] = test system: VERPE: Veronica persica; assay: Post-emergence herbicidal effect; conditions: dosage 320 g/ha
Outline: as §1

[6] = test system: MATIN: Matricaria inodora; assay: Post-emergence herbicidal effect; conditions: dosage 320 g/ha
Outline: as §1

[7] = test system: SETVI: Setaria viridis; assay: Post-emergence herbicidal effect
Outline: as §1

[8] = test system: PHBPU: Ipomoea purpurea; assay: Post-emergence herbicidal effect
Outline: as §1

[9] = test system: ABUTH: Abutilon theophrasti; assay: Post-emergence herbicidal effect
Outline: as §1

[10] = test system: HORMU: Hordeum murinum; assay: Post-emergence herbicidal effect
Outline: as §1

[11] = test system: VIOTR: Viola tricolor; assay: Post-emergence herbicidal effect; conditions: dosage 320 g/ha
Outline: as §1

[12] = test system: ALOMY: Alopecurus myosuroides; assay: Post-emergence herbicidal effect
Outline: as §1

[13] = test system: STEME: Stellaria media; assay: Post-emergence herbicidal effect; conditions: dosage 320 g/ha
Outline: as §1

[14] = test system: ECHCG: Echinochloa crus-galli; assay: Pre-emergence herbicidal effect; conditions: pre-emergence; dosage 320 g/ha
Outline: (§2)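 Visual percent scoring against untreated pots after roughly 3 weeks in the greenhouse (100% = dead, 0% = no effect). Treatment was a pre-emergence soil-surface spray of WP or EC formulations in water plus 0.5% additive, 600 l/ha.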

[15] = test system: AMARE: Amaranthus retroflexus; assay: Pre-emergence herbicidal effect; conditions: pre-emergence; dosage 320 g/ha
Outline: as §2

[16] = test system: LOLRI: Lolium rigidum; assay: Pre-emergence herbicidal effect; conditions: dosage 320 g/ha
Outline: as §2

[17] = test system: POLCO: Polygonum convolvulus; assay: Pre-emergence herbicidal effect; conditions: dosage 320 g/ha
Outline: as §2

[18] = test system: AVEFA: Avena fatua; assay: Pre-emergence herbicidal effect
Outline: as §2

[19] = test system: VERPE: Veronica persica; assay: Pre-emergence herbicidal effect; conditions: dosage 320 g/ha
Outline: as §2

[20] = test system: MATIN: Matricaria inodora; assay: Pre-emergence herbicidal effect; conditions: pre-emergence; dosage 320 g/ha
Outline: as §2

[21] = test system: SETVI: Setaria viridis; assay: Pre-emergence herbicidal effect; conditions: pre-emergence; dosage 320 g/ha
Outline: as §2

[22] = test system: PHBPU: Ipomoea purpurea; assay: Pre-emergence herbicidal effect
Outline: as §2

[23] = test system: ABUTH: Abutilon theophrasti; assay: Pre-emergence herbicidal effect
Outline: as §2

[24] = test system: HORMU: Hordeum murinum; assay: Pre-emergence herbicidal effect; conditions: pre-emergence; dosage 320 g/ha
Outline: as §2

[25] = test system: VIOTR: Viola tricolor; assay: Pre-emergence herbicidal effect; conditions: dosage 320 g/ha
Outline: as §2

[26] = test system: ALOMY: Alopecurus myosuroides; assay: Pre-emergence herbicidal effect; conditions: pre-emergence; dosage 320 g/ha
Outline: as §2

[27] = test system: STEME: Stellaria media; assay: Pre-emergence herbicidal effect; conditions: pre-emergence; dosage 320 g/ha
Outline: as §2

Cc1ccc2c(c1)[C@H](Nc1ncc(C(C)O)c(C)n1)[C@@H](C)C2 (stereo partly drawn) [Example 1.7, 1-(2-{[(1R,2S)-2,6-Dimethyl-2,3-dihydro-1H-inden-1-yl]amino}-4-methylpyrimidin-5-yl)ethanol]
Herbicidal action against ECHCG ([1]; dosage 80 g/ha): 20%
Herbicidal action against ECHCG ([1]; dosage 320 g/ha): 100%
Herbicidal action against AMARE [2]: 100%
Herbicidal action against LOLRI ([3]; dosage 80 g/ha): 100%
Herbicidal action against LOLRI ([3]; dosage 320 g/ha): 100%
Herbicidal action against POLCO ([4]; dosage 80 g/ha): 80%
Herbicidal action against POLCO ([4]; dosage 320 g/ha): 80%
Herbicidal action against VERPE [5]: 90%
Herbicidal action against MATIN [6]: 90%
Herbicidal action against SETVI ([7]; dosage 80 g/ha): 100%
Herbicidal action against SETVI ([7]; dosage 320 g/ha): 100%
Herbicidal action against PHBPU ([8]; dosage 80 g/ha): 60%
Herbicidal action against PHBPU ([8]; dosage 320 g/ha): 100%
Herbicidal action against ABUTH ([9]; dosage 80 g/ha): 60%
Herbicidal action against ABUTH ([9]; dosage 320 g/ha): 80%
Herbicidal action against HORMU ([10]; dosage 80 g/ha): 40%
Herbicidal action against HORMU ([10]; dosage 320 g/ha): 100%
Herbicidal action against VIOTR [11]: 90%
Herbicidal action against ALOMY ([12]; dosage 80 g/ha): 80%
Herbicidal action against ALOMY ([12]; dosage 320 g/ha): 100%
Herbicidal action against STEME [13]: 100%
Herbicidal action against ECHCG [14]: 100%
Herbicidal action against AMARE [15]: 100%
Herbicidal action against LOLRI [16]: 100%
Herbicidal action against POLCO [17]: 100%
Herbicidal action against AVEFA ([18]; dosage 80 g/ha): 70%
Herbicidal action against AVEFA ([18]; dosage 320 g/ha): 90%
Herbicidal action against VERPE [19]: 100%
Herbicidal action against MATIN [20]: 100%
Herbicidal action against SETVI [21]: 100%
Herbicidal action against PHBPU ([22]; dosage 80 g/ha): 80%
Herbicidal action against PHBPU ([22]; dosage 320 g/ha): 80%
Herbicidal action against ABUTH ([23]; dosage 80 g/ha): 90%
Herbicidal action against ABUTH ([23]; dosage 320 g/ha): 100%
Herbicidal action against HORMU [24]: 100%
Herbicidal action against VIOTR [25]: 100%
Herbicidal action against ALOMY [26]: 100%
Herbicidal action against STEME [27]: 100%

From patent publication US11477982B2, “2-amino-5-oxyalkyl-pyrimidine derivatives and their use for controlling undesired plant growth” (Bayer CropScience Aktiengesellschaft, priority 2017, dated 2022)
